Measurements taken from the NIST ThermoML archive (doi:10.1016/j.fluid.2014.11.009).
± gives the expanded uncertainty stated by the source.

Legend:
[1] = 101 kPa, Liquid; for viscosity: Cone and plate viscometry; for mass density: Vibrating tube method
[2] = xn = mol fraction of the nth substance listed; conditions: 101 kPa, Liquid; for mass density: Vibrating tube method; for viscosity: Cone and plate viscometry

SMILES: CN(CCO)CCO [N-methyldiethanolamine]
- viscosity ([1]; 303.2 K): 56.3 ± 3.4 mPa·s
- viscosity ([1]; 313.2 K): 34.44 ± 2.1 mPa·s
- mass density ([1]; 313.2 K): 1026.7 ± 2.2 kg/m3
- viscosity ([1]; 323.2 K): 22.93 ± 1.4 mPa·s
- mass density ([1]; 323.2 K): 1018.9 ± 2.2 kg/m3

SMILES: CN(CCO)CCO [N-methyldiethanolamine] + O
- mass density ([2]; 293.2 K, x1 = 0.0192): 1011.8 ± 2 kg/m3
- mass density ([2]; 293.2 K, x1 = 0.1168): 1043.3 ± 2.2 kg/m3
- mass density ([2]; 298.2 K, x1 = 0.0192): 1008.9 ± 2 kg/m3
- mass density ([2]; 298.2 K, x1 = 0.1168): 1040.4 ± 2.2 kg/m3
- viscosity ([2]; 303.2 K, x1 = 0.0192): 1.568 ± 0.095 mPa·s
- viscosity ([2]; 303.2 K, x1 = 0.1168): 6.671 ± 0.74 mPa·s
- mass density ([2]; 303.2 K, x1 = 0.0192): 1005.8 ± 2 kg/m3
- mass density ([2]; 303.2 K, x1 = 0.1168): 1037.3 ± 2.2 kg/m3
- viscosity ([2]; 313.2 K, x1 = 0.0192): 1.178 ± 0.071 mPa·s
- viscosity ([2]; 313.2 K, x1 = 0.1168): 4.706 ± 0.62 mPa·s
- mass density ([2]; 313.2 K, x1 = 0.0192): 999.7 ± 2 kg/m3
- mass density ([2]; 313.2 K, x1 = 0.1168): 1030.8 ± 2.2 kg/m3
- viscosity ([2]; 323.2 K, x1 = 0.0192): 0.796 ± 0.048 mPa·s
- viscosity ([2]; 323.2 K, x1 = 0.1168): 3.057 ± 0.23 mPa·s
- mass density ([2]; 323.2 K, x1 = 0.0192): 993.1 ± 2 kg/m3
- mass density ([2]; 323.2 K, x1 = 0.1168): 1024.1 ± 2.2 kg/m3
- viscosity ([2]; 333.2 K, x1 = 0.0192): 0.688 ± 0.042 mPa·s
- viscosity ([2]; 333.2 K, x1 = 0.1168): 2.193 ± 0.33 mPa·s
- mass density ([2]; 333.2 K, x1 = 0.0192): 983.8 ± 2 kg/m3
- mass density ([2]; 333.2 K, x1 = 0.1168): 1016.9 ± 2.2 kg/m3
- viscosity ([2]; 343.2 K, x1 = 0.1168): 1.589 ± 0.1 mPa·s
- mass density ([2]; 343.2 K, x1 = 0.0192): 977.9 ± 2 kg/m3
- mass density ([2]; 343.2 K, x1 = 0.1168): 1009.4 ± 2.2 kg/m3
- viscosity ([2]; 353.2 K, x1 = 0.1168): 1.194 mPa·s
- mass density ([2]; 353.2 K, x1 = 0.0192): 970.1 ± 1.9 kg/m3
- mass density ([2]; 353.2 K, x1 = 0.1168): 1001.7 ± 2.1 kg/m3
- mass density ([2]; 363.2 K, x1 = 0.0192): 962 ± 1.9 kg/m3
- mass density ([2]; 363.2 K, x1 = 0.1168): 993.5 ± 2.1 kg/m3

SMILES: NC(N)=[NH2+].O=S(=O)([O-])C(F)(F)F [guanidinium trifluoromethanesulfonate] + O
- mass density ([2]; 293.2 K, x1 = 0.0202): 1087.8 ± 2.2 kg/m3
- mass density ([2]; 293.2 K, x1 = 0.2073): 1125 ± 2.4 kg/m3
- mass density ([2]; 298.2 K, x1 = 0.0202): 1084 ± 2.2 kg/m3
- mass density ([2]; 298.2 K, x1 = 0.2073): 1120.3 ± 2.4 kg/m3
- viscosity ([2]; 303.2 K, x1 = 0.0018): 0.7366 ± 0.045 mPa·s
- viscosity ([2]; 303.2 K, x1 = 0.0056): 0.7996 ± 0.049 mPa·s
- viscosity ([2]; 303.2 K, x1 = 0.0095): 0.8208 ± 0.05 mPa·s
- viscosity ([2]; 303.2 K, x1 = 0.0137): 0.8616 ± 0.052 mPa·s
- viscosity ([2]; 303.2 K, x1 = 0.0181): 0.9134 ± 0.056 mPa·s
- viscosity ([2]; 303.2 K, x1 = 0.0202): 0.9855 ± 0.061 mPa·s
- viscosity ([2]; 303.2 K, x1 = 0.2073): 1.361 ± 0.083 mPa·s
- mass density ([2]; 303.2 K, x1 = 0.0202): 1080.8 ± 2.2 kg/m3
- mass density ([2]; 303.2 K, x1 = 0.2073): 1116.9 ± 2.4 kg/m3
- viscosity ([2]; 313.2 K, x1 = 0.0018): 0.6512 ± 0.04 mPa·s
- viscosity ([2]; 313.2 K, x1 = 0.0056): 0.6757 ± 0.041 mPa·s
- viscosity ([2]; 313.2 K, x1 = 0.0095): 0.6976 ± 0.042 mPa·s
- viscosity ([2]; 313.2 K, x1 = 0.0137): 0.7326 ± 0.045 mPa·s
- viscosity ([2]; 313.2 K, x1 = 0.0181): 0.8268 ± 0.051 mPa·s
- viscosity ([2]; 313.2 K, x1 = 0.0202): 0.8374 ± 0.051 mPa·s
- viscosity ([2]; 313.2 K, x1 = 0.2073): 1.098 ± 0.067 mPa·s
- mass density ([2]; 313.2 K, x1 = 0.0202): 1073.9 ± 2.2 kg/m3
- mass density ([2]; 313.2 K, x1 = 0.2073): 1110.6 ± 2.4 kg/m3
- viscosity ([2]; 323.2 K, x1 = 0.0018): 0.6047 ± 0.037 mPa·s
- viscosity ([2]; 323.2 K, x1 = 0.0056): 0.6289 ± 0.038 mPa·s
- viscosity ([2]; 323.2 K, x1 = 0.0095): 0.6517 ± 0.04 mPa·s
- viscosity ([2]; 323.2 K, x1 = 0.0137): 0.6872 ± 0.042 mPa·s
- viscosity ([2]; 323.2 K, x1 = 0.0181): 0.7268 ± 0.044 mPa·s
- viscosity ([2]; 323.2 K, x1 = 0.0202): 0.7438 ± 0.045 mPa·s
- viscosity ([2]; 323.2 K, x1 = 0.2073): 0.9221 ± 0.056 mPa·s
- mass density ([2]; 323.2 K, x1 = 0.0202): 1067.4 ± 2.1 kg/m3
- mass density ([2]; 323.2 K, x1 = 0.2073): 1103.8 ± 2.4 kg/m3
- viscosity ([2]; 333.2 K, x1 = 0.0018): 0.5555 ± 0.034 mPa·s
- viscosity ([2]; 333.2 K, x1 = 0.0056): 0.5686 ± 0.035 mPa·s
- viscosity ([2]; 333.2 K, x1 = 0.0095): 0.5834 ± 0.036 mPa·s
- viscosity ([2]; 333.2 K, x1 = 0.0137): 0.6095 ± 0.037 mPa·s
- viscosity ([2]; 333.2 K, x1 = 0.0181): 0.6302 ± 0.038 mPa·s
- viscosity ([2]; 333.2 K, x1 = 0.0202): 0.6544 ± 0.04 mPa·s
- viscosity ([2]; 333.2 K, x1 = 0.2073): 0.67 ± 0.041 mPa·s
- mass density ([2]; 333.2 K, x1 = 0.0202): 1059.3 ± 2.1 kg/m3
- mass density ([2]; 333.2 K, x1 = 0.2073): 1097.5 ± 2.3 kg/m3
- mass density ([2]; 343.2 K, x1 = 0.0202): 1050.9 ± 2.1 kg/m3
- mass density ([2]; 343.2 K, x1 = 0.2073): 1088.8 ± 2.3 kg/m3
- mass density ([2]; 353.2 K, x1 = 0.0202): 1043.2 ± 2.1 kg/m3
- mass density ([2]; 353.2 K, x1 = 0.2073): 1080 ± 2.3 kg/m3
- mass density ([2]; 363.2 K, x1 = 0.0202): 1035 ± 2.1 kg/m3
- mass density ([2]; 363.2 K, x1 = 0.2073): 1072.1 ± 2.3 kg/m3
